Common to all, as to format: cell-based
Assay [1] deals with E. coli C/Rms149. As to the kind of experiment: MIC by agar plate dilution method. As to conditions: Escherichia coli, read-out: Minimum Inhibitory Concentration, E. coli C/Rms149; 10^6 CFU/ml. In outline:
(§1)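 Agar dilution, Sensitivity Disk Agar; inoculum 10^6 CFU/ml; MIC reported as μg/ml; cefotaxime and ceftazidime run as comparators.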

The test system of assay [2] is P. vulgaris OB1043. As to the kind of experiment: MIC by agar plate dilution method. The settings on record: Proteus vulgaris, OB1043, P. vulgaris OB1043; 10^6 CFU/ml; read-out: Minimum Inhibitory Concentration. In outline:
(§2)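 Read-out is the minimum inhibitory concentration in μg/ml, found by the agar plate dilution method using a 10^6 CFU/ml inoculum on Sensitivity Disk Agar.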

Assay [3] has as its system E. coli ML1410/Rte16. As to the kind of experiment: MIC by agar plate dilution method. The settings on record: Escherichia coli, ML1410/RTE16, read-out: Minimum Inhibitory Concentration, E. coli ML1410/Rte16; 10^6 CFU/ml. An outline of the steps: as §1
Assay [4] relates to S. aureus NIHJJC-1. As to the kind of experiment: MIC by agar plate dilution method. As to conditions: Staphylococcus aureus, NIHJJC1, read-out: Minimum Inhibitory Concentration. An outline of the steps:
as §2

Assay [5] deals with S. aureus JS-1. As to the kind of experiment: MIC by agar plate dilution method. The settings on record: Staphylococcus aureus, JS1; S. aureus JS-1; 10^6 CFU/ml; read-out: Minimum Inhibitory Concentration. An outline of the steps: as §2
For assay [6], the system named is E. coli W3630/Rms212. As to the kind of experiment: MIC by agar plate dilution method. The settings on record: Escherichia coli, W3630/RMS212, read-out: Minimum Inhibitory Concentration, E. coli W3630/Rms212; 10^6 CFU/ml. In outline:
as §1

In assay [7] the test system is E. cloaceae Nek 39. As to the kind of experiment: MIC by agar plate dilution method. The settings on record: E. cloaceae Nek 39; 10^6 CFU/ml; read-out: Minimum Inhibitory Concentration. In outline: as §2
In assay [8] the test system is A. calcoaceticus No. 14. As to the kind of experiment: MIC by agar plate dilution method. As to conditions: Acinetobacter calcoaceticus, NO.14, A. calcoaceticus No. 14; 10^6 CFU/ml; read-out: Minimum Inhibitory Concentration. In outline:
as §2

In assay [9] the test system is P. mirabilis JY10. As to the kind of experiment: MIC by agar plate dilution method. The settings on record: Proteus mirabilis; P. mirabilis JY10; 10^6 CFU/ml; read-out: Minimum Inhibitory Concentration. In outline:
as §2

For assay [10], the system named is P. aeruginosa AKR17. As to the kind of experiment: MIC by agar plate dilution method. As to conditions: Pseudomonas aeruginosa, AKR17, P. aeruginosa AKR17; 10^6 CFU/ml; read-out: Minimum Inhibitory Concentration. In outline: as §2
Assay [11] has as its system P. vulgaris No. 33. As to the kind of experiment: MIC by agar plate dilution method. The settings on record: Proteus vulgaris; P. vulgaris No. 33; 10^6 CFU/ml; read-out: Minimum Inhibitory Concentration. In outline: as §2
Assay [12] deals with S. marcescens No. 16-2. As to the kind of experiment: MIC by agar plate dilution method. The settings on record: Serratia marcescens, NO.162; S. marcescens No. 16-2; 10^6 CFU/ml; read-out: Minimum Inhibitory Concentration. In outline:
as §2

Assay [13] deals with K. pneumoniae No. 42. As to the kind of experiment: MIC by agar plate dilution method. As to conditions: Klebsiella pneumoniae, NO.42, read-out: Minimum Inhibitory Concentration. An outline of the steps: as §2
In assay [14] the test system is P. aeruginosa AK109. As to the kind of experiment: MIC by agar plate dilution method. As to conditions: Pseudomonas aeruginosa, AK109, P. aeruginosa AK109; 10^6 CFU/ml; read-out: Minimum Inhibitory Concentration. An outline of the steps: as §2
Assay [15] relates to E. coli CSH2. As to the kind of experiment: MIC by agar plate dilution method. The settings on record: Escherichia coli, 10^6 CFU/ml, read-out: Minimum Inhibitory Concentration. An outline of the steps: as §2
Assay [16] concerns C. freundii No. 7. As to the kind of experiment: MIC by agar plate dilution method. As to conditions: Citrobacter freundii; C. freundii No. 7; 10^6 CFU/ml; read-out: Minimum Inhibitory Concentration. An outline of the steps:
as §2

For assay [17], the system named is E. coli W3630/Rms213. As to the kind of experiment: MIC by agar plate dilution method. The settings on record: Escherichia coli, W3630/RMS213, read-out: Minimum Inhibitory Concentration, E. coli W3630/Rms213; 10^6 CFU/ml. An outline of the steps: as §1
Assay [18] concerns E. coli NIHJJC-2. As to the kind of experiment: MIC by agar plate dilution method. As to conditions: Escherichia coli, NIHJJC2, E. coli NIHJJC-2; 10^6 CFU/ml; read-out: Minimum Inhibitory Concentration. In outline: as §2
The subject of assay [19] is E. coli CSH. As to the kind of experiment: MIC by agar plate dilution method. The settings on record: Escherichia coli, 10^6 CFU/ml, read-out: Minimum Inhibitory Concentration. In outline:
as §2

For assay [20], the system named is E. coli NIHJ. As to the kind of experiment: bioautography (TLC). As to conditions: TLC Merck silica gel F254, E. coli NIHJ. Here is the method: 2.5 mg of the compound obtained in Example 4 (C) was suspended in 0.5 ml of methanol, and 35 μl of concentrated aqueous ammonia was added thereto. The mixture was left to stand at room temperature for 1 hour. […] The fraction of this peak was separated and freeze-dried to obtain 1 mg of the above identified compound.

Assay [21] concerns bacteria. As to the kind of experiment: antibacterial spectrum of the compound of Example 6. As to conditions: compared with the compound of Example 3 (E).

The values below come from US4742053A, “3-Isoquinoliniomethyl cephalosporin derivatives” (Banyu Pharmaceutical Co., Ltd., priority 1984, dated 1988).

Molecules are shown by their SMILES. Values after ≈ are worked out from the molar mass of the structure shown.

Regarding `CON=C(C(=O)NC1C(=O)N2C(C(=O)[O-])=C(C[N+]3(C)CCc4cc(O)c(O)cc4C3)CSC12)c1csc(N)n1` (stereo not drawn) [Ex. 3-E, 7-[(Z)-2-(2-aminothiazol-4-yl)-2-methoxyiminoacetamido]-3-(6,7-dihydroxy-2-methyl-1,2,3,4-tetrahydro-2-isoquinolinium)methyl-3-cephem-4-carboxylate], the MIC in assay [1] is 0.1 µg/mL (≈ 0.174 µM); in assay [2] it was 0.78 µg/mL (≈ 1.36 µM); in [3], 0.1 µg/mL (≈ 0.174 µM); in [4], 1.56 µg/mL (≈ 2.71 µM); in [5] it was 6.25 µg/mL (≈ 10.9 µM); in assay [6], 0.05 µg/mL (≈ 0.087 µM). Further, the MIC is 0.1 µg/mL (≈ 0.174 µM) in assay [7]; 0.39 µg/mL (≈ 0.679 µM) in [8]; 0.78 µg/mL (≈ 1.36 µM) in assay [9]; 3.12 µg/mL (≈ 5.43 µM) in assay [10]; 0.2 µg/mL (≈ 0.348 µM) in assay [11]; 12.5 µg/mL (≈ 21.8 µM) in [12]. Moreover, the MIC in [13] stood at 0.39 µg/mL (≈ 0.679 µM); in [14] it was 0.78 µg/mL (≈ 1.36 µM); in assay [15], 0.1 µg/mL (≈ 0.174 µM); in assay [16] it was 3.12 µg/mL (≈ 5.43 µM); in assay [17], 1.56 µg/mL (≈ 2.71 µM); in assay [18], 0.1 µg/mL (≈ 0.174 µM). For the same compound, in assay [19], the MIC worked out at 0.78 µg/mL (≈ 1.36 µM). Besides, the “antibacterial spot in bioautography” value in assay [20] was “shows a spot exhibiting antibacterial activities at Rf=0.1”. For the same compound, in assay [21], the antibacterial spectrum entry is listed as “exhibited the same antibacterial spectrum as the compound of Example 3 (E)”.
